{"source": "patent US7405036B2", "about": "“Process for reducing pathogens in a biological sample and removing a sample pellet from a sample tube” (priority 2001, dated 2008)", "key": {"Campylobacter fetus": {"tested_on": "Campylobacter fetus", "format": "cell-based"}, "[1]": {"tested_on": "fresh semen of domestic bulls and gaur bulls", "format": "cell-based, Bos taurus, Bos gaur"}, "[2]": {"tested_on": "bovine (Bos gaurus) sperm", "assay": "Percoll density gradient with trypsin, viability of cryopreserved sperm"}, "Mycoplasma species": {"tested_on": "Mycoplasma species", "conditions": "200 μg/ml; cited from earlier work"}, "[3]": {"tested_on": "cultured cells and embryos", "conditions": "up to 1000 μg/ml; cited from earlier work"}}}
{"compound": "CCC[C@@H]1C[C@@H](C(=O)N[C@@H]([C@H]2O[C@H](SC)[C@H](O)[C@@H](O)[C@H]2O)[C@@H](C)O)N(C)C1", "note": "[lincomycin]", "values": [{"measurement": "sensitivity of C. fetus to antibiotic", "setting": "Campylobacter fetus", "value": "sensitive"}]}
{"compound": "trypsin", "values": [{"measurement": "acrosomal integrity", "setting": "[1]", "value": "nor any significant damage"}, {"measurement": "overall motility", "setting": "[1]", "value": "no significant reduction"}, {"measurement": "viability (vital staining)", "setting": "[1]", "value": "no reduction"}, {"measurement": "effect on sperm of increasing trypsin concentration", "setting": "[2]", "value": "no detrimental effects"}]}
{"compound": "CC[C@H]1OC(=O)C[C@@H](O)[C@H](C)[C@@H](O[C@@H]2O[C@H](C)[C@@H](O[C@H]3C[C@@](C)(O)[C@@H](O)[C@H](C)O3)[C@H](N(C)C)[C@H]2O)[C@@H](CC=O)C[C@@H](C)C(=O)/C=C/C(C)=C/[C@@H]1CO[C@@H]1O[C@H](C)[C@@H](O)[C@@H](OC)[C@H]1OC", "note": "[tylosin]", "values": [{"measurement": "elimination of Mycoplasma species from bovine embryos", "setting": "Mycoplasma species", "value": "capable of eliminating"}, {"measurement": "embryo viability", "setting": "Mycoplasma species", "value": "without effecting embryo viability"}, {"measurement": "sensitivity of C. fetus to antibiotic", "setting": "Campylobacter fetus", "value": "intermediate"}]}
{"compound": "NC[C@H]1O[C@H](O[C@H]2[C@H](O)[C@@H](O[C@H]3O[C@H](CO)[C@@H](O)[C@H](N)[C@H]3O)[C@H](N)C[C@@H]2N)[C@H](O)[C@@H](O)[C@@H]1O", "note": "[kanamycin]", "values": [{"measurement": "toxicity to cultured cells and embryos", "setting": "[3]", "value": "very little toxicity"}]}
{"compound": "CN[C@@H]1[C@H](O)[C@H](NC)[C@H]2O[C@@]3(O)C(=O)C[C@@H](C)O[C@H]3O[C@@H]2[C@H]1O", "note": "[spectinomycin]", "values": [{"measurement": "sensitivity of C. fetus to antibiotic", "setting": "Campylobacter fetus", "value": "intermediate"}]}
